# Data taken from patent US20250108142A1, “METHODS FOR TREATING LEAKAGE FROM A GASTROINTESTINAL SITE” (Ethicon, Inc., priority 2023, published 2025).
# Assay: Release of ibuprofen from fibrin clot in an in vitro setting
# Type: physicochemical
# Method: Release of ibuprofen from fibrin clot in an in vitro setting: A similar procedure was applied for ibuprofen embedded in fibrin sealant and for PLGA-ibuprofen embedded in fibrin sealant. […] This step was repeated 15 times (days). The ibuprofen concentration was measured by its UV signature, that is, UV absorption at 221 nm.
smiles,measurement,value
"CC(C)Cc1ccc(C(C)C(=O)O)cc1 (stereo not shown) [Ibuprofen, ibuprofen]",release profile,less than controlled manner
